The numbers were not newly measured in PubChem BioAssay AID1259409 (Chemical Carcinogenesis Research Information System (CCRIS), 2018), which cites them from elsewhere.

This data set has as its system rodent chemically induced tumor inhibition, incidence and multiplicity. In words: CCRIS tumor inhibitor studies. The note with it: Dose [Inhibitor]: 0, Promoter: NONE USED.

Consider `C=C(C)[C@H]1CC=C(C)CC1`, for which the “tumour outcome (control, treated, inhibition, significance)” value (Carcinogen: METHYLCHOLANTHRENE, 56-49-5, 0.5 ML 1/WK FOR 1 YR BEGINNING POST CARCINOGEN TREATMENT (STUDY DURATION: 24 MO), Route [Inhibitor]: GAVAGE, Species: MOUSE, Strain/Sex: SWISS/MALE, Target Tissue: Type of Lesion: SKIN: SARCOMA AND CARCINOMA, Dose [Carcinogen]: 0.01 MG ON D 1, 7, 14 AND 21 AFTER BIRTH) is 5/13 (38%), 2/14 (14%), 63%, not calculated; the “tumour outcome (control, treated, inhibition, significance)” value (Carcinogen: METHYLCHOLANTHRENE, 56-49-5, 0.5 ML 1/WK FOR 1 YR BEGINNING POST CARCINOGEN TREATMENT (STUDY DURATION: 24 MO), Route [Inhibitor]: GAVAGE, Species: MOUSE, Strain/Sex: SWISS/MALE, Target Tissue: Type of Lesion: SPLEEN: LYMPHOMA, Dose [Carcinogen]: 0.01 MG ON D 1, 7, 14 AND 21 AFTER BIRTH) is 2/13 (15%), 3/14 (21%), -40%, not calculated; the “tumour outcome (control, treated, inhibition, significance)” value (Carcinogen: N-ETHYL-N-HYDROXYETHYLNITROSAMINE, 13147-25-6, 150 MG/KG/D IN CORN OIL 5 D/WK FOR 30 WK BEGINNING POST CARCINOGEN TREATMENT (STUDY DURATION: 32 WK), Route [Inhibitor]: GAVAGE, Species: RAT, Strain/Sex: F344/MALE, Target Tissue: Type of Lesion: LIVER: TUMOR, Dose [Carcinogen]: 500 PPM IN DRINKING WATER FOR 2 WK) is recorded as 26/30 (87%), 17/31 (55%), 37%, p<0.01; the “tumour outcome (control, treated, inhibition, significance)” value (Carcinogen: N-NITROSOMETHYLUREA, 684-93-5, 5% IN DIET BEGINNING 1 WK POST CARCINOGEN TREATMENT AND CONTINUING FOR DURATION OF STUDY (STUDY DURATION: 23 WK), Route [Inhibitor]: ORAL, Species: RAT, Strain/Sex: WISTAR/FEMALE, Target Tissue: Type of Lesion: MAMMARY GLAND: TUMOR, Dose [Carcinogen]: 50 MG/KG ONCE) is on record as 80%, 50%, 38%, p<0.001; the “tumour outcome (control, treated, inhibition, significance)” value (Carcinogen: N-NITROSOMETHYLUREA, 684-93-5, 5% IN DIET BEGINNING 2 WK PRIOR TO CARCINOGEN TREATMENT AND CONTINUING FOR DURATION OF STUDY (STUDY DURATION: 23 WK), Route [Inhibitor]: ORAL, Species: RAT, Strain/Sex: WISTAR/FEMALE, Target Tissue: Type of Lesion: MAMMARY GLAND: TUMOR, Dose [Carcinogen]: 50 MG/KG ONCE) is on record as 80%, 45%, 47%, p<0.001; the “tumour outcome (control, treated, inhibition, significance)” value (Carcinogen: N-NITROSOMETHYLUREA, 684-93-5, 5% IN DIET FOR 2 WK PRIOR TO AND 1 WK POST CARCINOGEN TREATMENT (STUDY DURATION: 23 WK), Route [Inhibitor]: ORAL, Species: RAT, Strain/Sex: WISTAR/FEMALE, Target Tissue: Type of Lesion: MAMMARY GLAND: TUMOR, Dose [Carcinogen]: 50 MG/KG ONCE) is reported as 80%, 74%, 8%, not significant. Also, the “tumour outcome (control, treated, inhibition, significance)” value is listed as 3/18 (17%), 2/19 (11%), 35%, not calculated (Carcinogen: SAFROLE, 94-59-7, 0.5 ML 1/WK FOR 1 YR BEGINNING POST CARCINOGEN TREATMENT (STUDY DURATION: 24 MO), Route [Inhibitor]: GAVAGE, Species: MOUSE, Strain/Sex: SWISS/FEMALE, Target Tissue: Type of Lesion: LUNG: PAPILLARY ADENOCARCINOMA, Dose [Carcinogen]: 0.2 MG ON D 1 AND 7 AFTER BIRTH THEN 0.4 MG ON D 14 AND 21); 2/18 (11%), 0/19 (0%), 100%, not calculated (Carcinogen: SAFROLE, 94-59-7, 0.5 ML 1/WK FOR 1 YR BEGINNING POST CARCINOGEN TREATMENT (STUDY DURATION: 24 MO), Route [Inhibitor]: GAVAGE, Species: MOUSE, Strain/Sex: SWISS/FEMALE, Target Tissue: Type of Lesion: SKIN: SARCOMA, Dose [Carcinogen]: 0.2 MG ON D 1 AND 7 AFTER BIRTH THEN 0.4 MG ON D 14 AND 21); 7/24 (29%), 0/24 (0%), 100%, p<0.005 (Carcinogen: SAFROLE, 94-59-7, 0.5 ML 1/WK FOR 1 YR BEGINNING POST CARCINOGEN TREATMENT (STUDY DURATION: 24 MO), Route [Inhibitor]: GAVAGE, Species: MOUSE, Strain/Sex: SWISS/MALE, Target Tissue: Type of Lesion: LIVER: HEPATOCELLULAR CARCINOMA, Dose [Carcinogen]: 0.2 MG ON D 1 AND 7 AFTER BIRTH THEN 0.4 MG ON D 14 AND 21); 5/24 (21%), 1/24 (4%), 81%, not calculated (Carcinogen: SAFROLE, 94-59-7, 0.5 ML 1/WK FOR 1 YR BEGINNING POST CARCINOGEN TREATMENT (STUDY DURATION: 24 MO), Route [Inhibitor]: GAVAGE, Species: MOUSE, Strain/Sex: SWISS/MALE, Target Tissue: Type of Lesion: LUNG: PAPILLARY ADENOCARCINOMA, Dose [Carcinogen]: 0.2 MG ON D 1 AND 7 AFTER BIRTH THEN 0.4 MG ON D 14 AND 21); 2/24 (8%), 0/24 (0%), 100%, not calculated (Carcinogen: SAFROLE, 94-59-7, 0.5 ML 1/WK FOR 1 YR BEGINNING POST CARCINOGEN TREATMENT (STUDY DURATION: 24 MO), Route [Inhibitor]: GAVAGE, Species: MOUSE, Strain/Sex: SWISS/MALE, Target Tissue: Type of Lesion: SKIN: SARCOMA, Dose [Carcinogen]: 0.2 MG ON D 1 AND 7 AFTER BIRTH THEN 0.4 MG ON D 14 AND 21); 6/24 (25%), 1/24 (4%), 84%, not calculated (Carcinogen: SAFROLE, 94-59-7, 0.5 ML 1/WK FOR 1 YR BEGINNING POST CARCINOGEN TREATMENT (STUDY DURATION: 24 MO), Route [Inhibitor]: GAVAGE, Species: MOUSE, Strain/Sex: SWISS/MALE, Target Tissue: Type of Lesion: SPLEEN: LYMPHOMA, Dose [Carcinogen]: 0.2 MG ON D 1 AND 7 AFTER BIRTH THEN 0.4 MG ON D 14 AND 21). Besides, the “tumour outcome (control, treated, inhibition, significance)” value was 9/18 (50%), 2/19 (11%), 78%, not calculated (Carcinogen: SAFROLE, 94-59-7, 0.5 ML 1/WK FOR 1 YR BEGINNING POST CARCINOMA TREATMENT (STUDY DURATION: 24 MO), Route [Inhibitor]: GAVAGE, Species: MOUSE, Strain/Sex: SWISS/FEMALE, Target Tissue: Type of Lesion: SPLEEN: LYMPHOMA, Dose [Carcinogen]: 0.2 MG ON D 1 AND 7 AFTER BIRTH THEN 0.4 MG ON D 14 AND 21); 2/8 (25%), 0/9 (0%), 100%, not calculated (Carcinogen: TANNIC ACID, 1401-55-4, 0.5 ML 1/WK FOR 1 YR BEGINNING POST CARCINOGEN TREATMENT (STUDY DURATION: 24 MO), Route [Inhibitor]: GAVAGE, Species: MOUSE, Strain/Sex: SWISS/FEMALE, Target Tissue: Type of Lesion: LUNG: PAPILLARY ADENOCARCINOMA, Dose [Carcinogen]: 25 MG/KG BW ON D 1, 7, 14 AND 21 AFTER BIRTH); 4/8 (50%), 3/9 (33%), 34%, not calculated (Carcinogen: TANNIC ACID, 1401-55-4, 0.5 ML 1/WK FOR 1 YR BEGINNING POST CARCINOGEN TREATMENT (STUDY DURATION: 24 MO), Route [Inhibitor]: GAVAGE, Species: MOUSE, Strain/Sex: SWISS/FEMALE, Target Tissue: Type of Lesion: SPLEEN: LYMPHOMA, Dose [Carcinogen]: 25 MG/KG BW ON D 1, 7, 14 AND 21 AFTER BIRTH); 3/12 (25%), 0/12 (0%), 100%, not calculated (Carcinogen: TANNIC ACID, 1401-55-4, 0.5 ML 1/WK FOR 1 YR BEGINNING POST CARCINOGEN TREATMENT (STUDY DURATION: 24 MO), Route [Inhibitor]: GAVAGE, Species: MOUSE, Strain/Sex: SWISS/MALE, Target Tissue: Type of Lesion: LUNG: PAPILLARY ADENOCARCINOMA, Dose [Carcinogen]: 25 MG/KG BW ON D 1, 7, 14 AND 21 AFTER BIRTH); 5/12 (42%), 3/12 (25%), 40%, not calculated (Carcinogen: TANNIC ACID, 1401-55-4, 0.5 ML 1/WK FOR 1 YR BEGINNING POST CARCINOGEN TREATMENT (STUDY DURATION: 24 MO), Route [Inhibitor]: GAVAGE, Species: MOUSE, Strain/Sex: SWISS/MALE, Target Tissue: Type of Lesion: SPLEEN: LYMPHOMA, Dose [Carcinogen]: 25 MG/KG BW ON D 1, 7, 14 AND 21 AFTER BIRTH).
